Measured values: patent US20080003627A1, “SYSTEM FOR BIOSYNTHESIS OF FIREFLY LU[…] WITH NATURAL L-CYSTEINE OR DERIVATIVES THEREOF AND LU[…] SOLUTIONS CONTAINING THE SYSTEM” (NATIONAL INSTITUTE OF ADVANCED INDUSTRIAL SCIENCE AND …, priority 2004, published 2008)

Biological target: firefly luciferase (Photinus pyralis, UniProt P08659)
Experiment: firefly luminescence reaction (luminescence activity as substrate)
Type: biochemical
Settings: ATP, Mg ion, luminometer
Protocol: In a buffer solution (0.1 M Tris-HCl, pH 8), 10 mM 2-cyano-6-hydroxybenzothiazole, 1 mM L-cysteine, 10 mM COA-SH, 0.1 mg/mL of firefly luciferase and 100 units/mL of swine liver esterase were dissolved, 10 μL of the mixture was dispensed in a tube for measuring the luminescence, and a total volume was made 100 μL by adding the same buffer. An ATP—Mg solution (100 μL, 6 mM ATP—Na, 16 mM MgSO4) was injected thereto to initiate a luminescence reaction, and a luminescence amount was measured using a luminometer AB2200 supplied from ATTO Corporation.

firefly luciferase, sequence (P08659 whole entry): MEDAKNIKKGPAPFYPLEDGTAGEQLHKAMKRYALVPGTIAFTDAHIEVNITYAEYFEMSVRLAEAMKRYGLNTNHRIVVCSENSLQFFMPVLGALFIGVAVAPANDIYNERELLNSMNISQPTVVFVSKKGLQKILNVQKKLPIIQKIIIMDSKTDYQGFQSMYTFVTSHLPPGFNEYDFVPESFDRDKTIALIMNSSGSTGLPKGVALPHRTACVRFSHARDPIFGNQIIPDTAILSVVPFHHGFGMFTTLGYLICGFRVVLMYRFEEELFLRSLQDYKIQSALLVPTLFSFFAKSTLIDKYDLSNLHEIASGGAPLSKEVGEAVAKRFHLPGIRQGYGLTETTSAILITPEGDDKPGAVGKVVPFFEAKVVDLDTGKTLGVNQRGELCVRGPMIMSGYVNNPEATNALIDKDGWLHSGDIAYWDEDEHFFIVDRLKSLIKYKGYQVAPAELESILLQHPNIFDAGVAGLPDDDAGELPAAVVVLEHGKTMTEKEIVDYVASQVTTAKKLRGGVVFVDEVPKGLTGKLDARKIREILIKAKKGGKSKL

For `CC(C)(COP(=O)(O)OP(=O)(O)OCC1OC(n2cnc3c(N)ncnc32)C(O)C1OP(=O)(O)O)C(O)C(=O)NCCC(=O)NCCSC(=O)C1CSC(c2nc3ccc(O)cc3s2)=N1` (stereo not shown) [luciferyl-CoA], the “luminescence activity (produces luminescence with luciferase)” value was “does not produce the luminescence”.
